Assay: Donor sample analysis by chiral LC/MS/MS (oral fluid)
Format: in vivo
Excerpt: HPLC conditions were adapted from a separation method posted on the manufacturer's website (Sigma-Aldrich) using UV detection. A Supelco Astec Chirobiotic® V2 chiral column (5 μm particle size, 2.1×250 mm) from Sigma-Aldrich was used to achieve the chiral separation of the enantiomers for amphetamine and methamphetamine. The Chirobiotic® V2 column employs vancomycin as the chiral stationary phase to induce separation. The mobile phase consisted of 99.89:0.1:0.01 methanol:acetic acid:ammonium hydroxide (v/v/v) with a flow rate of 0.5 mL/min. The column temperature was 30° C. The HPLC employed was a Shimadzu Nexera UPLC system (Kyoto, Japan) operating at typical HPLC pressures. The injection volume for the method was 5 μL.
Detection was performed by an API 4000 triple-quadrupole mass spectrometer from AB Sciex (Foster City, Calif., USA). Column eluent was introduced into the mass spectrometer using the Turbolonspray® source operating in the positive ionization mode. Multiple-reaction monitoring (MRM) was used to analyze and detect each compound with a high degree of selectivity. The ionspray voltage was set at 5000V and the source temperature was 550° C. Parameters such as declustering potential (DP), collision energy (CE) and entrance and exit potentials (EP and CXP) were optimized for each analyte. The total analysis time for the method is 10 minutes.
Sample extraction was accomplished by aliquoting 200 μL of oral fluid sample into a 16×75 mm culture tube and adding 50 μL of internal standard (200 ng/mL racemic D11-amphetamine and […]). The sample was then treated with 25 μL of 10% sodium periodate solution and allowed to sit for 30 minutes after mixing. A 500 μL aliquot of 0.1 M phosphoric acid was added to each sample and mixed prior to transfer to the SPE wells.
The Agilent SPEC-DAU 96-well SPE plate was conditioned with 1 mL of methanol followed by 0.5 mL of 0.1 M phosphoric acid. Nitrogen gas was used to apply positive pressure for all SPE steps to induce a flow rate of about 1 to 2 mL per minute. […]
Several donor samples have been analyzed by this method. […]

| Structure (SMILES) | % d-amphetamine in samples containing amphetamine (9 out of 25 donor samples, consistent with Adderall use) | % d-amphetamine in samples containing amphetamine (the remaining donor samples) [%] | % d-methamphetamine in samples containing methamphetamine (all donor samples containing methamphetamine) [%] |
| --- | --- | --- | --- |
| C[C@H](N)Cc1ccccc1 [d-Amphetamine, d-amphetamine] | approximately 70% | 100 |  |
| CN[C@@H](C)Cc1ccccc1 [d-Methamphetamine, d-methamphetamine] |  |  | > 90 |
